The target in this series is T1, AhR (Homo sapiens, UniProt P35869).
T1 sequence (P35869 11-848): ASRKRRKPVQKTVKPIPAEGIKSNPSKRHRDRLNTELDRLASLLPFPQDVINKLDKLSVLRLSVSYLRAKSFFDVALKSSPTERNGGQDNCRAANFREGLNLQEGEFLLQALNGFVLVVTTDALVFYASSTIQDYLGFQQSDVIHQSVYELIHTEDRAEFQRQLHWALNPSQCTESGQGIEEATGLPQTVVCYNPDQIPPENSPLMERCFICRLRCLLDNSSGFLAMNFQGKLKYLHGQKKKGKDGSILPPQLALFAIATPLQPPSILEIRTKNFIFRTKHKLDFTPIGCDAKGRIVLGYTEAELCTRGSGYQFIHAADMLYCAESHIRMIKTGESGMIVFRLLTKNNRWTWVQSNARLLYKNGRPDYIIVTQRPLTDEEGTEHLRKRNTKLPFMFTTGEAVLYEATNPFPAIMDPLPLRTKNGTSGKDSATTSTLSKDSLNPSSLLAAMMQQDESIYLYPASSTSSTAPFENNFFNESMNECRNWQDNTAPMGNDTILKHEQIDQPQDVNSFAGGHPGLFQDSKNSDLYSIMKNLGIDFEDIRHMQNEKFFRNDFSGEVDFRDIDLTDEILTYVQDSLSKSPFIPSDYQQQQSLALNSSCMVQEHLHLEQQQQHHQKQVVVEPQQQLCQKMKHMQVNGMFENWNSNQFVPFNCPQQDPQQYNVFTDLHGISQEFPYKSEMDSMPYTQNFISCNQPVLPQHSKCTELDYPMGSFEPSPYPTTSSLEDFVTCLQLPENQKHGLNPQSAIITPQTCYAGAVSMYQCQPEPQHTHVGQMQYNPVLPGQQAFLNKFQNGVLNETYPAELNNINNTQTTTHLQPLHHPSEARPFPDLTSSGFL
As to the kind of experiment: In Vitro Assay 1: XRE-luciferase reporter assay, antagonism in human cell line (HepG2).

Where [1] appears, read: Assay 1: AhR-Luc Human Antagonism (IC50, nM), unmarked values: kynurenine 200 μM, 6 hours.

Where two headings read alike, the source gives them in different places.

In the case of `Cc1ncccc1-c1nc(-c2ccc(C(F)(F)F)cc2)cc(N2CC[C@H](O)C2)n1` [Example 269, (S)-1-(2-(2-methylpyridin-3-yl)-6-(4-(trifluoromethyl)phenyl)pyrimidin-4-yl)pyrrolidin-3-ol], the IC50 under setting [1] is less than 10 nM. Under setting [1], `Oc1ncccc1-c1nc(-c2ccc(C(F)(F)F)cc2)cc(N2CC[C@H](O)C2)n1` [Example 270, (S)-3-(4-(3-hydroxypyrrolidin-1-yl)-6-(4-(trifluoromethyl)phenyl)pyrimidin-2-yl)pyridin-2-ol] registered an IC50 of less than 10 nM. `OCC1CCN(c2cc(-c3ccc(Cl)cc3O)nc(-c3cccnc3)n2)CC1` [Example 271, 5-chloro-2-(6-(4-(hydroxymethyl)piperidin-1-yl)-2-(pyridin-3-yl)pyrimidin-4-yl)phenol] displayed an IC50 under setting [1] of less than 10 nM. On to `CC(C)(C)OC(=O)N1CCN(c2cc(-c3ccc(Cl)cc3)nc(-c3cccnc3)n2)C[C@H]1CO` [Example 272, tert-butyl (S)-4-(6-(4-chlorophenyl)-2-(pyridin-3-yl)pyrimidin-4-yl)-2-(hydroxymethyl)piperazine-1-carboxylate], for which the IC50 under setting [1] was 10 to 100 nM. With `CS(=O)(=O)Nc1ccc(-c2cc(N3CCC(CO)CC3)nc(-c3cccnc3)n2)cc1` [Example 274, N-(4-(6-(4-(hydroxymethyl)piperidin-1-yl)-2-(pyridin-3-yl)pyrimidin-4-yl)phenyl)methanesulfonamide], under setting [1], the IC50 was more than 1000 nM.

Under setting [1], `CN1CCN(c2ccc(-c3cc(N4CCC(CO)CC4)nc(-c4cccnc4)n3)cc2)CC1` [Example 275, (1-(6-(4-(4-methylpiperazin-1-yl)phenyl)-2-(pyridin-3-yl)pyrimidin-4-yl)piperidin-4-yl)methanol] displayed an IC50 of 10 to 100 nM. Under setting [1], `OCC1CCN(c2cc(-c3c(F)cc(F)cc3F)nc(-c3cccnc3)n2)CC1` [Example 277, (1-(2-(pyridin-3-yl)-6-(2,4,6-trifluorophenyl)pyrimidin-4-yl)piperidin-4-yl)methanol] had an IC50 of 100 to 1000 nM. On to `OC[C@@H]1CN(c2cc(-c3ccc(C(F)(F)F)cc3)nc(-c3cccnc3)n2)CCO1` [Example 279, (S)-(4-(2-(pyridin-3-yl)-6-(4-(trifluoromethyl)phenyl)pyrimidin-4-yl)morpholin-2-yl)methanol], for which the IC50 under setting [1] was less than 10 nM.

For the molecule `OC[C@@H]1CCN(c2cc(-c3ccc(C(F)(F)F)cc3)nc(-c3cccnc3)n2)C[C@H]1F` [Example 281, ((3S,4S)-3-fluoro-1-(2-(pyridin-3-yl)-6-(4-(trifluoromethyl)phenyl)pyrimidin-4-yl)piperidin-4-yl)methanol], the IC50 under setting [1] is less than 10 nM. Same read-out and setting: as for `O[C@H]1CN(c2cc(-c3ccc(Cl)cc3)nc(-c3cccnc3)n2)C[C@@H]1O` [Example 284, (3S,4S)-1-(6-(4-chlorophenyl)-2-(pyridin-3-yl)pyrimidin-4-yl)pyrrolidine-3,4-diol], the figure is less than 10 nM. For the molecule `OCC1CCN(c2cc(-c3ccc(N4CCOCC4)cc3)nc(-c3cccnc3O)n2)CC1` [Example 285, 3-(4-(4-(hydroxymethyl)piperidin-1-yl)-6-(4-morpholinophenyl)pyrimidin-2-yl)pyridin-2-ol], the IC50 under setting [1] lay within 10 to 100 nM. The same measure, in the same setting: to `Cn1cc(-c2nc(-c3ccc(N4CCOCC4)cc3)cc(N3CCC(CO)CC3)n2)cn1` [Example 286, (1-(2-(1-methyl-1H-pyrazol-4-yl)-6-(4-morpholinophenyl)pyrimidin-4-yl)piperidin-4-yl)methanol] belongs 100 to 1000 nM; to `Cn1cc(-c2nc(-c3ccc(N4CCOCC4)c(F)c3)cc(N3CCC(CO)CC3)n2)cn1` [Example 287, (1-(6-(3-fluoro-4-morpholinophenyl)-2-(1-methyl-1H-pyrazol-4-yl)pyrimidin-4-yl)piperidin-4-yl)methanol], 100 to 1000 nM. Same read-out and setting: as for `OCC1CCN(c2cc(-c3ccc4[nH]ncc4c3)nc(-c3cccnc3)n2)CC1` [Example 288, (1-(6-(1H-indazol-5-yl)-2-(pyridin-3-yl)pyrimidin-4-yl)piperidin-4-yl)methanol], the figure is 100 to 1000 nM. Under setting [1], `O=C1Cc2cc(-c3cc(N4CCC(CO)CC4)nc(-c4cccnc4)n3)ccc2N1` [Example 290, 5-(6-(4-(hydroxymethyl)piperidin-1-yl)-2-(pyridin-3-yl)pyrimidin-4-yl)indolin-2-one] showed a half-inhibitory concentration (IC50) of more than 1000 nM. The molecule `O=C1COCCN1c1ccc(-c2cc(N3CCC(CO)CC3)nc(-c3cccnc3)n2)cc1` [Example 291, 4-(4-(6-(4-(hydroxymethyl)piperidin-1-yl)-2-(pyridin-3-yl)pyrimidin-4-yl)phenyl)morpholin-3-one] registered an IC50 under setting [1] of more than 1000 nM. The same measure, in the same setting: to `O=C(O)c1ccc(-c2cc(N3CCC(CO)CC3)nc(-c3cccnc3)n2)cc1` [Example 292, 4-(6-(4-(hydroxymethyl)piperidin-1-yl)-2-(pyridin-3-yl)pyrimidin-4-yl)benzoic acid] belongs more than 1000 nM. On to `Cn1ccc(-c2cc(N3CCC(CO)CC3)nc(-c3cccnc3)n2)n1` [Example 293, 4 (1-(6-(1-methyl-1H-pyrazol-3-yl)-2-(pyridin-3-yl)pyrimidin-4-yl)piperidin-4-yl)methanol], for which the IC50 (read-out: Assay 1: AhR-Luc Human Antagonism (IC50), unmarked values: kynurenine 200 μM, 6 hours) was more than 1000 nM. The molecule `OCC1CCN(c2cc(-c3cncc(F)c3)nc(-c3cccnc3)n2)CC1` [Example 294, (1-(6-(5-fluoropyridin-3-yl)-2-(pyridin-3-yl)pyrimidin-4-yl)piperidin-4-yl)methanol] came in with an IC50 under setting [1] of 100 to 1000 nM.

Turning to `Oc1ncccc1-c1nc(-c2ccc(N3CCOCC3)nc2)cc(N2CC[C@H](O)C2)n1` [Example 295, (S)-3-(4-(3-hydroxypyrrolidin-1-yl)-6-(6-morpholinopyridin-3-yl)pyrimidin-2-yl)pyridin-2-ol], the IC50 under setting [1] is more than 1000 nM. In the case of `O=[N+]([O-])c1cc(-c2cc(N3CC[C@H](O)C3)nc(-c3cccnc3)n2)ccc1F` [Example 296, (S)-1-(6-(4-fluoro-3-nitrophenyl)-2-(pyridin-3-yl)pyrimidin-4-yl)pyrrolidin-3-ol], the IC50 under setting [1] was more than 1000 nM. As for `O=[N+]([O-])c1cc(-c2cc(N3CC[C@H](O)C3)nc(-c3cccnc3)n2)ccc1N1CCOCC1` [Example 297, (S)-1-(6-(4-morpholino-3-nitrophenyl)-2-(pyridin-3-yl)pyrimidin-4-yl)pyrrolidin-3-ol], the IC50 under setting [1] was more than 1000 nM. As for `Nc1cc(-c2cc(N3CC[C@H](O)C3)nc(-c3cccnc3)n2)ccc1N1CCOCC1` [Example 298, (S)-1-(6-(3-amino-4-morpholinophenyl)-2-(pyridin-3-yl)pyrimidin-4-yl)pyrrolidin-3-ol], the IC50 under setting [1] was 10 to 100 nM. The same measure, in the same setting: as for `CC(=O)Nc1cc(-c2cc(N3CC[C@H](O)C3)nc(-c3cccnc3)n2)ccc1N1CCOCC1` [Example 299, (S)—N-(5-(6-(3-hydroxypyrrolidin-1-yl)-2-(pyridin-3-yl)pyrimidin-4-yl)-2-morpholinophenyl)acetamide], the figure is more than 1000 nM; as for `O[C@H]1CCN(c2cc(-c3ccc(F)nc3)nc(-c3cccnc3)n2)C1` [Example 300, (S)-1-(6-(6-fluoropyridin-3-yl)-2-(pyridin-3-yl)pyrimidin-4-yl)pyrrolidin-3-ol], 100 to 1000 nM. The same measure, in the same setting: to `CN(C)CCNc1ccc(-c2cc(N3CC[C@H](O)C3)nc(-c3cccnc3)n2)cn1` [Example 301, (S)-1-(6-(6-((2-(dimethylamino)ethyl)amino)pyridin-3-yl)-2-(pyridin-3-yl)pyrimidin-4-yl)pyrrolidin-3-ol] belongs 100 to 1000 nM; to `CC1CN(c2ccc(-c3cc(N4CC[C@H](O)C4)nc(-c4cccnc4)n3)cn2)CC(C)O1` (stereo partly drawn) [Example 302, (3S)-1-(6-(6-(2,6-dimethylmorpholino)pyridin-3-yl)-2-(pyridin-3-yl)pyrimidin-4-yl)pyrrolidin-3-ol], more than 1000 nM; to `O=S(=O)(CCO)N1CCN(c2cc(-c3ccc(Cl)cc3O)nc(-c3cccnc3)n2)CC1` [Example 303, 5-chloro-2-(6-(4-((2-hydroxyethyl)sulfonyl)piperazin-1-yl)-2-(pyridin-3-yl)pyrimidin-4-yl)phenol], less than 10 nM. Consider `Oc1cc(Cl)ccc1-c1cc(N2CC[C@H](O)C2)nc(-c2cccnc2O)n1` [Example 304, (S)-3-(4-(4-chloro-2-hydroxyphenyl)-6-(3-hydroxypyrrolidin-1-yl)pyrimidin-2-yl)pyridin-2-ol], for which the IC50 under setting [1] is less than 10 nM. Under setting [1], `Nc1ccc(-c2cc(N3CC[C@H](O)C3)nc(-c3cccnc3)n2)cc1` [Example 305, (S)-1-(6-(4-aminophenyl)-2-(pyridin-3-yl)pyrimidin-4-yl)pyrrolidin-3-ol] registered an IC50 of more than 1000 nM. As for `C=CS(=O)(=O)N1CCN(c2cc(-c3ccc(Cl)cc3)nc(-c3cccnc3)n2)CC1` [Example 306, 4-(4-chlorophenyl)-2-(pyridin-3-yl)-6-(4-(vinylsulfonyl)piperazin-1-yl)pyrimidine], under setting [1], the IC50 fell in the range of 10 to 100 nM.

A word on the IC50: it is the concentration that gives 50% inhibition.

For the origin of these results see US20230150970A1, “AMINOPYRIMIDINE DERIVATIVES AND THEIR USE AS ARYL HYDROCARBON RECEPTOR MODULATORS” (DONG-A ST CO., LTD., priority 2020, published 2023).
